Results on 16 compounds are retold here after patent US10125134B2 (Mirati Therapeutics, Inc., priority 2016, dated 2018).

In assay [1] the test system is NCI-H358 cells (express KRas G12C), Phospho-ERK. As to the kind of experiment: Cellular inhibition of KRas G12C: Phospho-ERK in NCI-H358 cells. In kind it is cell-based. The following applies: Homo sapiens, pERK(Thr202/Tyr204) normalized with GAPDH, NCI-H358 cells, 3 hours, read-out: IC50. Summed up: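 IC50 derived by 4-parameter fit of GAPDH-normalized pERK(Thr202/Tyr204) signal, as percent of DMSO control. Signal came from in-cell immunodetection with infrared secondaries after 3 h compound exposure of KRas G12C NCI-H358 cells at 0.5% DMSO.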

The target in assay [2] is KRas G12C (Homo sapiens, UniProt P01116, C118S/C51S/C80L/G12C). In words: KRas G12C Modification Assay (LCMS detection of covalent adduct). In kind it is binding. The following applies: normalized percent of control; tested at 5 μM concentration for 3 hours. The essentials: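 Covalent modification was read by reverse-phase LC/MS of intact protein after compound exposure, each reaction stopped at its time point with 25 mM acetic acid. Unmodified-protein signal, taken as percent of total, was normalised to untreated protein and reported as POC.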

Read-outs that look alike come from different tables or passages of the source. Bounds are passed on as bounds.

Turning to `C=CC(=O)N1CCN(c2nc(OC[C@@H]3C[C@@H](F)CN3C)nc3c2CCN(c2cccc4ccccc24)C3)CC1CC#N` (stereo partly drawn) [Example 220, 2-(1-acryloyl-4-(2-(((2 S,4R)-4-fluoro-1-methylpyrrolidin-2-yl)methoxy)-7-(naphthalen-1-yl)-5,6,7,8-tetrahydropyrido[3,4-d]pyrimidin-4-yl)piperazin-2-yl)acetonitrile], in assay [1], the IC50 (in general, the concentration that gives 50% inhibition) is 0.1 to 1000 nM. Besides, the POC entry in assay [2] was “C (“C”>50% POC)”.
For `C=CC(=O)N1CCN(c2nc(OC[C@@H]3C[C@H](F)CN3C)nc3c2CCN(c2cccc4ccccc24)C3)CC1CC#N` (stereo partly drawn) [Example 221, 2-(1-acryloyl-4-(2-(((2S,4S)-4-fluoro-1-methylpyrrolidin-2-yl)methoxy)-7-(naphthalen-1-yl)-5,6,7,8-tetrahydropyrido[3,4-d]pyrimidin-4-yl)piperazin-2-yl)acetonitrile], in assay [1] (NCI-H358, 3 h), the IC50 lay in the range of 0.1 to 1000 nM. For the same compound, in assay [2], the POC result is “C (“C”>50% POC)”.
In the case of `C=CC(=O)N1CCN(c2nc(OC[C@@H]3C[C@H](OC)CN3C)nc3c2CCN(c2cccc4ccccc24)C3)CC1CC#N` (stereo partly drawn) [Example 222, 2-(1-acryloyl-4-(2-(((2S,4S)-4-methoxy-1-methylpyrrolidin-2-yl)methoxy)-7-(naphthalen-1-yl)-5,6,7,8-tetrahydropyrido[3,4-d]pyrimidin-4-yl)piperazin-2-yl)acetonitrile], the half-maximal inhibitory concentration (IC50) in assay [1] (NCI-H358, 3 h) lay in the range of 0.1 to 1000 nM. For the same compound, the POC entry in assay [2] is on record as “C (“C”>50% POC)”.
Regarding `C=CC(=O)N1CCN(c2nc(OC[C@@H]3CN(C)CCN3)nc3c2CCN(c2cccc4ccccc24)C3)CC1CC#N` (stereo partly drawn) [Example 223, 2-(1-acryloyl-4-(2-(((S)-4-methylpiperazin-2-yl)methoxy)-7-(naphthalen-1-yl)-5,6,7,8-tetrahydropyrido[3,4-d]pyrimidin-4-yl)piperazin-2-yl)acetonitrile], the IC50 in assay [1] (NCI-H358, 3 h) was in the range of 0.1 to 1000 nM. Besides, in assay [2], the POC result is reported as “C (“C”>50% POC)”.
In the case of `C=CC(=O)N1CCN(c2nc(OC[C@H]3CN(C)CCN3)nc3c2CCN(c2cccc4ccccc24)C3)CC1CC#N` (stereo partly drawn) [Example 224, 2-(1-acryloyl-4-(2-(((R)-4-methylpiperazin-2-yl)methoxy)-7-(naphthalen-1-yl)-5,6,7,8-tetrahydropyrido[3,4-d]pyrimidin-4-yl)piperazin-2-yl)acetonitrile], the IC50 in assay [1] (NCI-H358, 3 h) fell in the range of 0.1 to 1000 nM. For the same compound, the POC result in assay [2] is given as “C (“C”>50% POC)”.
The matching figures for `C=CC(=O)N1CCN(c2nc(OC[C@@H]3CCCN3C)nc3c2CCN(c2cc(F)ccc2OC(F)(F)F)C3)CC1CC#N` (stereo partly drawn) [Example 225, 2-(1-acryloyl-4-(7-(5-fluoro-2-(trifluoromethoxy)phenyl)-2-(((S)-1-methylpyrrolidin-2-yl)methoxy)-5,6,7,8-tetrahydropyrido[3,4-d]pyrimidin-4-yl)piperazin-2-yl)acetonitrile]: 0.1 to 1000 nM and “C (“C”>50% POC)”.
For `C=CC(=O)N1CCN(c2nc(OC[C@@H]3CCCN3C)nc3c2CCN(c2cccnc2C(F)(F)F)C3)CC1CC#N` (stereo partly drawn) [Example 226, 2-(1-acryloyl-4-(2-(((S)-1-methylpyrrolidin-2-yl)methoxy)-7-(2-(trifluoromethyl)pyridin-3-yl)-5,6,7,8-tetrahydropyrido[3,4-d]pyrimidin-4-yl)piperazin-2-yl)acetonitrile], in that order: 0.1 to 1000 nM and “C (“C”>50% POC)”.
The matching figures for `C=CC(=O)N1CCN(c2nc(OC[C@@H]3CCCN3C)nc3c2CCN(c2ccccc2F)C3)CC1CC#N` (stereo partly drawn) [Example 227, 2-(1-acryloyl-4-(7-(2-fluorophenyl)-2-(((S)-1-methylpyrrolidin-2-yl)methoxy)-5,6,7,8-tetrahydropyrido[3,4-d]pyrimidin-4-yl)piperazin-2-yl)acetonitrile]: 0.1 to 1000 nM and “A (“A”≤25% POC)”.
Take `C=CC(=O)N1CCN(c2nc(OC[C@@H]3CCCN3C)nc3c2CCN(c2cccc(C)c2C)C3)CC1CC#N` (stereo partly drawn) [Example 228, 2-(1-acryloyl-4-(7-(2,3-dimethylphenyl)-2-(((S)-1-methylpyrrolidin-2-yl)methoxy)-5,6,7,8-tetrahydropyrido[3,4-d]pyrimidin-4-yl)piperazin-2-yl)acetonitrile]: the IC50 in assay [1] (NCI-H358, 3 h) was in the range of 0.1 to 1000 nM. For the same compound, the POC entry in assay [2] is “C (“C”>50% POC)”.
The matching figures for `C=CC(=O)N1CCN(c2nc(OC[C@@H]3CCCN3C)nc3c2CCN(c2ccccc2Cl)C3)CC1CC#N` (stereo partly drawn) [Example 229, 2-(1-acryloyl-4-(7-(2-chlorophenyl)-2-(((S)-1-methylpyrrolidin-2-yl)methoxy)-5,6,7,8-tetrahydropyrido[3,4-d]pyrimidin-4-yl)piperazin-2-yl)acetonitrile]: 0.1 to 1000 nM and “C (“C”>50% POC)”.
The matching figures for `C=CC(=O)N1CCN(c2nc(OC[C@@H]3CCCN3C)nc3c2CCN(c2cccc(F)c2C(F)(F)F)C3)CC1CC#N` (stereo partly drawn) [Example 230, 2-(1-acryloyl-4-(7-(3-fluoro-2-(trifluoromethyl)phenyl)-2-(((S)-1-methylpyrrolidin-2-yl)methoxy)-5,6,7,8-tetrahydropyrido[3,4-d]pyrimidin-4-yl)piperazin-2-yl)acetonitrile]: 0.1 to 1000 nM and “C (“C”>50% POC)”.
For `C=CC(=O)N1CCN(c2nc(OCCCO)nc3c2CCN(c2cccc4ccccc24)C3)CC1CC#N` (centres unmarked) [Example 231, 2-(1-acryloyl-4-(2-(3-hydroxypropoxy)-7-(naphthalen-1-yl)-5,6,7,8-tetrahydropyrido[3,4-d]pyrimidin-4-yl)piperazin-2-yl)acetonitrile], the IC50 in assay [1] lay within 0.1 to 1000 nM. The POC entry in assay [2] is recorded as “C (“C”>50% POC)”.
Consider `C=CC(=O)N1CCN(c2nc(OCCCN3CCOCC3)nc3c2CCN(c2cc(O)cc(Cl)c2F)C3)CC1` [Example 232, 1-(4-(7-(3-chloro-2-fluoro-5-hydroxyphenyl)-2-(3-morpholinopropoxy)-5,6,7,8-tetrahydropyrido[3,4-d]pyrimidin-4-yl)piperazin-1-yl)prop-2-en-1-one], for which, in assay [1], the IC50 was greater than 1000 nM. For the same compound, in assay [2], the POC entry was “C (“C”>50% POC)”.
As for `C=CC(=O)N1CCN(c2nc(OC[C@@H]3CCCN3CC)nc3c2CCN(c2cccc4ccccc24)C3)CC1CC#N` (stereo partly drawn) [Example 233, 2-(1-acryloyl-4-(2-(((S)-1-ethylpyrrolidin-2-yl)methoxy)-7-(naphthalen-1-yl)-5,6,7,8-tetrahydropyrido[3,4-d]pyrimidin-4-yl)piperazin-2-yl)acetonitrile], the IC50 in assay [1] (NCI-H358, 3 h) lay in the range of 0.1 to 1000 nM. The POC entry in assay [2] is reported as “C (“C”>50% POC)”.
On to `C=CC(=O)N1CCN(c2nc(OC[C@@H]3CCCN3C)nc3c2CCN(c2cccc4ccccc24)C3)C[C@@H]1CC#N` [Example 234, 2-((S)-1-acryloyl-4-(2-(((S)-1-methylpyrrolidin-2-yl)methoxy)-7-(naphthalen-1-yl)-5,6,7,8-tetrahydropyrido[3,4-d]pyrimidin-4-yl)piperazin-2-yl)acetonitrile], for which, in assay [1], the IC50 is 0.1 to 1000 nM. For the same compound, the POC entry in assay [2] was “C (“C”>50% POC)”.
On to `CN(C)C/C=C/C(=O)N1CCN(c2nc(OC[C@@H]3CCCN3C)nc3c2CCN(c2cccc4ccccc24)C3)C[C@@H]1CC#N` [Example 235, 2-((S)-1-((E)-4-(dimethylamino)but-2-enoyl)-4-(2-(((S)-1-methylpyrrolidin-2-yl)methoxy)-7-(naphthalen-1-yl)-5,6,7,8-tetrahydropyrido[3,4-d]pyrimidin-4-yl)piperazin-2-yl)acetonitrile], for which, in assay [1] (NCI-H358, 3 h), the IC50 was 0.1 to 1000 nM. The POC entry in assay [2] is “C (“C”>50% POC)”.
